Laboratory results taken from patent publication US20230338463A1, “ICD PEPTIDE AND USE THEREOF FOR HAVING CYTOTOXIC ACTIVITY ON CANCER CELLS” (NATIONAL TSING HUA UNIVERSITY, priority 2022, published 2023).
Non-standard residues stand in square brackets, D forms with d. Residues, ends and D or L forms follow the SMILES beside them. Bip = N[C@@H](Cc1ccc(-c2ccccc2)cc1)C(=O)O; Dip = N[C@H](C(=O)O)C(c1ccccc1)c1ccccc1

Legend:
[1] = system: MN-11 cells (murine fibrosarcoma); assay type: cell-based
From the text: Medium with PBS solution was used as control group.
Besides, MTT assay was used to test the cell viability of the murine fibrosarcoma MN-11 cell line. Among the peptides, Dip-P-113 had the lowest cytotoxicity against MN-11 cells (FIG. 1F).

[2] = system: MN-11 cell line; assay type: cell-based, murine; settings: 2 h
Description: Besides, evaluation of the killing kinetics of Nal-P-113, Bip-P-113 and Dip-P-113 for MN-11 was determined by MTT assay. Two-fold half 1inhibitory concentration (2 × IC50) was chosen for the experiments and the results were recorded at selected time points (30 mins, 1 hour, 2 hours and 4 hours). […] In 2 hours, the cell survival rate was near 50%.

[3] = system: PC9 cells (non-small cell lung cancer with EGFR mutation); settings: human, 24 h
From the text: (§1) Three non-small cell lung cancer cell lines (H1975, A549, PC9) and two oral cancer cell lines (CGNHC9, OECM-1) were used in the present invention. H1975 is the non-small cell lung carcinoma tissue, A549 is the adenocarcinomic alveolar basal epithelial cells and PC9 is the non-small cell lung cancer with EGFR mutation. CGNHC9 and OECM-1 cell lines refer to oral squamous cell carcinoma and gingival epidermoid carcinoma respectively. The abovemetioned cell lines were derived from human origin and being cultured in the humidified incubator containing 5% CO2 at 37° C. CGNHC9 cell line was cultured in Dulbecco’s modified Eagle’s medium (GIBCO Life Technologies Corporation, NY, USA) with 10% fetal bovine serum (FBS), 2 mM L-glutamine and 1% penicillin/ streptomycin and Roswell Park Memorial Institute 1640 (RPMI 1640, GIBCO Life Technologies Corporation, NY, USA) medium with 10% fetal bovine serum (FBS), 2 mM L-glutamine and 1% penicillin/ streptomycin was used as the culture medium for the rest of the cell lines.
(§2) The anticancer activity of ICD peptides include, not limited, SEQ ID NO: 1 and its derivative peptides (SEQ ID NO: 2, SEQ ID NO: 3, SEQ ID NO: 4, and SEQ ID NO: 5) was using the 3-(4,5-Dimethyl-2-thiazolyl)-2,5-diphenyl-2H-tetrazolium bromide (MTT, Sigma Aldrich, St. Louis, MO, USA) colorimetric assay for cell viability test. The cells include, not limited, H1975, A549, PC9, CGNHC9, OECM-1, MN-11 and HFW cells/cell lines.
(§3) The cells were seeded in the 96-well plate at 5000 cells/well under the environment of humidified 5% CO2 and the temperature of 37° C. for 24 hours. The medium was removed from the well before the fresh medium containing different concentrations of ICD peptides was added and incubated for 24 hours. Medium with PBS solution was used as control group. All ICD peptides were diluted serially from 100 µM to 0.78 µM in ddH2O before adding in the medium. After 24 hours of ICD peptide treatment, fresh medium with 10% MTT solution (5 mg/mL) was incubated for additional 4 hours in advance of dissolving the formazan crystal in 100 µL DMSO (Dimethyl sulfoxide, Sigma Aldrich) solution. The calculation of cell survival rate was completed by measuring the absorbance at 570 nm using microplate reader (TECAN Sunrise ELISA Reader).
(§4) The cell survival was calculated from the treated cells relative to the control (100% viable cells) using the mean of three independent experiments and expressed as a 50% inhibitory concentration (IC50).
(§5) The percentage of cell viability was calculated using the following formula: […]
(§6) The half inhibition concentration (IC50) is the concentration required by the drug to reach fifty percent inhibition. In one embodiment, the SEQ ID NO: 1 and its derivative peptides (SEQ ID NO:2, SEQ ID NO:3, SEQ ID NO:4, SEQ ID NO: 5) was used for IC50 test via MTT colorimetric assay.

[4] = system: OECM-1 cells (gingival epidermoid carcinoma); settings: for cell viability percentage: human, 24 h
From the text: as §1, §2, §3, §4, §5, §6

[5] = system: H1975 cells (non-small cell lung cancer); settings: 24 h
From the text: as §1, §2, §3, §4, §5, §6

[6] = system: CGNHC9 cells (oral squamous cell carcinoma); settings: for cell viability percentage: human, 24 h
From the text: as §1, §2, §3, §4, §5, §6

[7] = system: A549 cells (adenocarcinomic alveolar basal epithelial cells); settings: A549, MTT, 24 hours
From the text: as §1, §2, §3, §4, §5, §6

CC(=O)N[C@@H](C)C(=O)N[C@@H](CCCCN)C(=O)N[C@@H](CCCNC(=N)N)C(=O)N[C@H](C(=O)N[C@H](C(=O)NCC(=O)N[C@@H](Cc1ccc(O)cc1)C(=O)N[C@@H](CCCCN)C(=O)N[C@@H](CCCNC(=N)N)C(=O)N[C@@H](CCCCN)C(=O)N[C@@H](Cc1ccccc1)C(=O)N[C@H](C(N)=O)C(c1ccccc1)c1ccccc1)C(c1ccccc1)c1ccccc1)C(c1ccccc1)c1ccccc1 [SEQ ID NO: 5, Ac-AKR Dip Dip GYKRKFDip-NH2] (Ac-AKR[Dip][Dip]GYKRKF[Dip]-NH2)
IC50 [1]: 59.8 ± 6.13 µM | cell survival rate [2]: ~50% | cell viability percentage [3]: lower than 20% | cell viability percentage [4]: lower than 20% | IC50 [5]: 100 µM | cell viability percentage [6]: lower than 20%

Ac-AKRHHGYKRKFH-NH2 [SEQ ID NO: 1, Ac-AKR His His GYKRKF His-NH2]
IC50 [7]: 107 µM | IC50 ([4]; OECM-1, MTT, 24 hours): 141 µM | IC50 [5]: 110 µM | IC50 ([6]; CGNHC9, MTT, 24 hours): 84.3 µM

Ac-AKRFFGYKRKFF-NH2 [SEQ ID NO:2, Ac-AKR Phe Phe GYKRKF Phe-NH2]
IC50 [5]: 107 µM

CC(=O)N[C@@H](C)C(=O)N[C@@H](CCCCN)C(=O)N[C@@H](CCCNC(=N)N)C(=O)N[C@@H](Cc1ccc(-c2ccccc2)cc1)C(=O)N[C@@H](Cc1ccc(-c2ccccc2)cc1)C(=O)NCC(=O)N[C@@H](Cc1ccc(O)cc1)C(=O)N[C@@H](CCCCN)C(=O)N[C@@H](CCCNC(=N)N)C(=O)N[C@@H](CCCCN)C(=O)N[C@@H](Cc1ccccc1)C(=O)N[C@@H](Cc1ccc(-c2ccccc2)cc1)C(N)=O [SEQ ID NO:4, Ac-AKR Bip Bip GYKRKF Bip-NH2] (Ac-AKR[Bip][Bip]GYKRKF[Bip]-NH2)
IC50 [1]: 12.1 ± 0.47 µM | cell survival rate [2]: ~50% | cell viability percentage [3]: lower than 20% | cell viability percentage [4]: lower than 20% | cell viability percentage [6]: lower than 20%
